Measurements taken from patent publication US20200060276A1, “THIAZOLE COMPOUND AND HERBICIDE” (OAT Agrio Co., Ltd., priority 2017, published 2020).

Experiments:
Format in all cases: in vivo
[1] = test system: Cyperus microiria; assay: Test for Herbicidal Effect in Flooding Treatment (#1), CYMIC; conditions: flooding treatment at seeding, dose 2 kg/ha, visual observation on day 21
Description: (#1) Test for Herbicidal Effect in Flooding Treatment: Styrol cups each having an opening diameter of 8 cm (about 52 cm^2) were respectively filled with soil (45 ml) which had been passed through a sieve (2 mm). Water (about 115 ml) was mixed with the soil such that the soil was flooded. After the soil stood still for 24 hours, Monochoria vaginalis, Echinochloa crus-galli (L.) P. Beauv. var. formosensis Ohwi, Cyperus difformis (umbrella sedge), and Scirpus juncoides were seeded. Each of the compounds of the present invention was dissolved in acetone, and the obtained product was then diluted with water containing Tween 80®. Each of the resultant chemical solutions was dropped on the entire surface of an associated one of treatment sections, so that each section was treated with 1 ml of the respective chemical solution (a dose of 2 kg/ha). After the treatment, the plants were grown in a glasshouse. On day 21, a survey was conducted on the herbicidal activity by visual observation, and evaluation was made according to the following criteria. 0: Growth inhibition effect is less than 10%. 1: Growth inhibition effect is equal to or greater than 10%, and less than 30%. 2; Growth inhibition effect is equal to or greater than 30%, and less than 50%. 3: Growth inhibition effect equal to or greater than 50%, and less than 70%. 4: Growth inhibition effect is equal to or greater than 70%, and less than 90%. 5: Growth inhibition effect is equal to or greater than 90%, or complete withering is achieved. ECHDG=Echinochloa crus-galli (L.) P. Beauv. var. formosensis Ohwi, MONVA=Monochoria vaginalis, SCIJU=Scirpus juncoides, CYMIC=Cyperus microiria.

[2] = test system: Echinochloa crus-galli (L.) P. Beauv. var. formosensis Ohwi; assay: Test for Herbicidal Effect in Flooding Treatment (#2), ECHDG at 2-2.5 leaf stage; conditions: for ECHDG (2-2.5L) #2 herbicidal effect (growth inhibition grade): flooding treatment at 2-2.5 leaf stage, dose 0.2 kg/ha, visual observation on day 21
Summary of the method: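 Flooded muddy soil was seeded with the weed, and at 2–2.5 leaf stage compound in acetone/Tween 80 water was dropped on the water surface at 0.2 kg/ha. Plants were kept in a glasshouse and scored visually on day 21 from 0 (<10% growth inhibition) to 5 (≥90% or complete withering).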

[3] = test system: Scirpus juncoides; assay: Test for Herbicidal Effect in Flooding Treatment (#1), SCIJU; conditions: flooding treatment at seeding, dose 2 kg/ha, visual observation on day 21
Summary of the method: (§1)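 Sieved soil in cups was flooded and left 24 h before weed seeds were sown. Compounds in acetone, diluted with Tween 80-containing water, were dropped over the whole surface at 2 kg/ha. After 21 days in a glasshouse, growth inhibition was scored visually from 0 (<10%) to 5 (≥90% or complete withering).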

[4] = test system: Echinochloa crus-galli (L.) P. Beauv. var. formosensis Ohwi; assay: Test for Herbicidal Effect in Flooding Treatment (#1), ECHDG; conditions: flooding treatment at seeding, dose 2 kg/ha, visual observation on day 21
Summary of the method: as §1

SMILES | CYMIC #1 herbicidal effect (growth inhibition grade) [1] | ECHDG (2-2.5L) #2 herbicidal effect (growth inhibition grade) [2] | SCIJU #1 herbicidal effect (growth inhibition grade) [3] | ECHDG #1 herbicidal effect (growth inhibition grade) [4] | inhibition at 200 g/ha ([2]; Echinochloa crus-galli, 504 h, flooding treatment (#2), ECHDG at 2-2.5 leaf stage, dose of 0.2 kg/ha, day 21, visual observation, read-out: growth inhibition effect)
COc1ccc(CS(=O)(=O)c2ncc(Cl)s2)cc1Cl [Compound 1C-89] | 5 (Growth inhibition effect is equal to or greater than 90%, or complete withering is achieved) | 3 (Growth inhibition effect equal to or greater than 50%, and less than 70%) | 5 (Growth inhibition effect is equal to or greater than 90%, or complete withering is achieved) | 5 (Growth inhibition effect is equal to or greater than 90%, or complete withering is achieved) | –
N#Cc1cccc(CS(=O)(=O)c2ncc(Cl)s2)c1 [Compound 1C-171] | 5 (Growth inhibition effect is equal to or greater than 90%, or complete withering is achieved) | 3 (Growth inhibition effect equal to or greater than 50%, and less than 70%) | 5 (Growth inhibition effect is equal to or greater than 90%, or complete withering is achieved) | 5 (Growth inhibition effect is equal to or greater than 90%, or complete withering is achieved) | –
O=S(=O)(Cc1cccc(OC(F)F)c1)c1ncc(Cl)s1 [Compound 1C-84] | 5 (Growth inhibition effect is equal to or greater than 90%, or complete withering is achieved) | 3 (Growth inhibition effect equal to or greater than 50%, and less than 70%) | 5 (Growth inhibition effect is equal to or greater than 90%, or complete withering is achieved) | 5 (Growth inhibition effect is equal to or greater than 90%, or complete withering is achieved) | –
O=S(=O)(Cc1ccc(OC(F)(F)C(F)F)cc1)c1ncc(Cl)s1 [Compound 1C-116] | 5 (Growth inhibition effect is equal to or greater than 90%, or complete withering is achieved) | 3 (Growth inhibition effect equal to or greater than 50%, and less than 70%) | 5 (Growth inhibition effect is equal to or greater than 90%, or complete withering is achieved) | 5 (Growth inhibition effect is equal to or greater than 90%, or complete withering is achieved) | –
COc1cc(F)ccc1CS(=O)(=O)c1ncc(Cl)s1 [Compound 1C-3] | 5 (Growth inhibition effect is equal to or greater than 90%, or complete withering is achieved) | 4 (Growth inhibition effect is equal to or greater than 70%, and less than 90%) | 5 (Growth inhibition effect is equal to or greater than 90%, or complete withering is achieved) | 5 (Growth inhibition effect is equal to or greater than 90%, or complete withering is achieved) | –
COc1cccc(CS(=O)(=O)c2ncc(Cl)s2)c1C [Compound 1C-67] | 5 (Growth inhibition effect is equal to or greater than 90%, or complete withering is achieved) | 5 (Growth inhibition effect is equal to or greater than 90%, or complete withering is achieved) | 5 (Growth inhibition effect is equal to or greater than 90%, or complete withering is achieved) | 5 (Growth inhibition effect is equal to or greater than 90%, or complete withering is achieved) | –
CCOc1c(Cl)cc(CS(=O)(=O)c2ncc(Cl)s2)cc1Cl [Compound 1C-106] | 5 (Growth inhibition effect is equal to or greater than 90%, or complete withering is achieved) | 3 (Growth inhibition effect equal to or greater than 50%, and less than 70%) | 5 (Growth inhibition effect is equal to or greater than 90%, or complete withering is achieved) | 5 (Growth inhibition effect is equal to or greater than 90%, or complete withering is achieved) | –
CCOc1ccc(CS(=O)(=O)c2ncc(Cl)s2)cc1C [Compound 1C-97] | 5 (Growth inhibition effect is equal to or greater than 90%, or complete withering is achieved) | 3 (Growth inhibition effect equal to or greater than 50%, and less than 70%) | 5 (Growth inhibition effect is equal to or greater than 90%, or complete withering is achieved) | 5 (Growth inhibition effect is equal to or greater than 90%, or complete withering is achieved) | –
CN(C)c1cc(Cl)cc(CS(=O)(=O)c2ncc(Cl)s2)c1Cl [Compound 1C-170] | 5 (Growth inhibition effect is equal to or greater than 90%, or complete withering is achieved) | 5 (Growth inhibition effect is equal to or greater than 90%, or complete withering is achieved) | 5 (Growth inhibition effect is equal to or greater than 90%, or complete withering is achieved) | 5 (Growth inhibition effect is equal to or greater than 90%, or complete withering is achieved) | –
CCCCOc1cc(Cl)c(CS(=O)(=O)c2ncc(Cl)s2)c(Cl)c1 [Compound 1C-113] | 5 (Growth inhibition effect is equal to or greater than 90%, or complete withering is achieved) | 5 (Growth inhibition effect is equal to or greater than 90%, or complete withering is achieved) | 5 (Growth inhibition effect is equal to or greater than 90%, or complete withering is achieved) | 5 (Growth inhibition effect is equal to or greater than 90%, or complete withering is achieved) | –
O=S(=O)(Cc1cccc(OC(F)(F)F)c1)c1ncc(Cl)s1 [Compound 1C-85, 5-chloro-2-{[3-(trifluoromethoxy)phenyl][methanesulfonyl]}-1,3-thiazole] | 5 (Growth inhibition effect is equal to or greater than 90%, or complete withering is achieved) | 1 (Growth inhibition effect is equal to or greater than 10%, and less than 30%) | 5 (Growth inhibition effect is equal to or greater than 90%, or complete withering is achieved) | 5 (Growth inhibition effect is equal to or greater than 90%, or complete withering is achieved) | –
CCCOc1cc(F)c(CS(=O)(=O)c2ncc(Cl)s2)c(F)c1 [Compound 1C-109] | 5 (Growth inhibition effect is equal to or greater than 90%, or complete withering is achieved) | 4 (Growth inhibition effect is equal to or greater than 70%, and less than 90%) | 5 (Growth inhibition effect is equal to or greater than 90%, or complete withering is achieved) | 5 (Growth inhibition effect is equal to or greater than 90%, or complete withering is achieved) | –
O=S(=O)(Cc1ccccc1OC(F)(F)F)c1ncc(Cl)s1 [Compound 1C-46] | 5 (Growth inhibition effect is equal to or greater than 90%, or complete withering is achieved) | 5 (Growth inhibition effect is equal to or greater than 90%, or complete withering is achieved) | 5 (Growth inhibition effect is equal to or greater than 90%, or complete withering is achieved) | 5 (Growth inhibition effect is equal to or greater than 90%, or complete withering is achieved) | –
CCOc1cccc(Cl)c1CS(=O)(=O)c1ncc(Cl)s1 [Compound 1C-20] | 5 (Growth inhibition effect is equal to or greater than 90%, or complete withering is achieved) | 5 (Growth inhibition effect is equal to or greater than 90%, or complete withering is achieved) | 5 (Growth inhibition effect is equal to or greater than 90%, or complete withering is achieved) | 5 (Growth inhibition effect is equal to or greater than 90%, or complete withering is achieved) | ≥ 90%
